Experimental data published in patent publication US20240424010A1, “NICOTINAMIDE RIBOSIDE TRIOLEATES CHLORIDE, COMPOSITIONS CONTAINING THIS COMPOUND, AND METHODS OF MAKING AND USING THIS COMPOUND” (SOCIETE DES PRODUITS NESTLE S.A., priority 2021, published 2024).

Legend:
[1] = Stability of NRTOCl and NRCl in DI water at 35° C. for 28 days (released nicotinamide by HPLC); format: physicochemical; settings: DI water, 1000 ppm, 28 days
Procedure: Although NRTOCl is a quaternary ammonium salt, it was not dissolved in water due to the existence of three groups of oleate fatty ester in its structure. Therefore, for the stability study of NRTOCl, this compound was dispersed in DI water using 1% ethanol as a cosolvent. For this purpose, 15 mg of NRTOCl was dissolved in 0.15 ml of ethanol (1%) and then 14.85 ml of DI water was added to the mixture and gently shaken. […] Although the average size of NRTOCl in this sample was 192 nm, the images of TEM disclosed smaller particles with around 50 nm and oval and spherical shapes with aspect ratio close to unity (FIGS. 10A-10C). In the nanoparticles, the NRTOCl structures are stacked on top of each other layer-by-layer. The highly positive charge of NRTO makes the nanoparticles stable in the aqueous phase. After dispersion of NRTOCl in DI water, NRCl was dissolved in DI water, and the stability of these samples were studied at 35° C. for 28 days (FIG. 11). The concentration of each sample was 1000 ppm. As during the hydrolysis reaction of NRTO and NR, both of these compounds released nicotinamide (FIG. 12), and by measuring the released amount of nicotinamide in each sample with HPLC, the remaining amounts of NRTO and NR in each sample were calculated. During this study, any release of NR from NRTO sample was not detected. It signifies that the heavy ester groups in NRTO sample are not hydrolyzed during the time of stability study. Because this study was performed in DI water and the conditions were mild, the NRTO was hydrolyzed from its N-glycoside bond.

[2] = Hydrolysis stability of NRTOCl and NRCl oil-in-water emulsions and NRCl in water at 35° C. for 26 days; format: physicochemical
Procedure: The emulsion was prepared using 480 mg of oil stock containing 15 wt. % NRTOCl in canola oil and an aqueous phase (14.52 g) of Na-caseinate (2 wt. %), KCl (0.3 wt. %), NaCl (0.1 wt. %), CaCl2 (0.2 wt. %) and NaN3 (0.01 wt. %).
The emulsion was-prepared using 480 mg of oil stock containing 15 wt. % NRTOCl in canola oil and 0.025 g of lecithin. The aqueous phase (14.5 g) contained Na-caseinate (2 wt. %), KC (0.3 wt. %), NaCl (0.1 wt. %), CaCl2 (0.2 wt. %) and NaN3 (0.01 wt. %).
The emulsion was-prepared using 480 mg of oil stock containing 15 wt. % NRTOCl in canola oil and an aqueous phase (14.52 g) of polysorbate 80 (Tween 80) (2 wt. %).
The emulsion was prepared using around 480 mg of canola oil in an aqueous phase (14.52 g) of NRCl (19 mg), Na-caseinate (2 wt. %), KCl (0.3 wt. %), NaCl (0.1 wt. %), CaCl2 (0.2 wt. %) and NaN3 (0.01 wt. %).
After each specific time of stability for NRTOCl and NRCl emulsions, 1.5 mL of each emulsion was centrifuged (14,000 rpm) for 20 minutes at room temperature.
Since NRTOCl is a very hydrophobic compound, to evaluate its stability in oil phase, an emulsion system was used to study the stability of NRTOCl as a function of time. For this purpose, a 15% w/w solution of NRTOCl in canola oil was used for making different emulsions with Na-caseinate, Tween 80 and lecithin as the emulsifiers (2 wt. %) at room temperature.
When Na-caseinate was used as an emulsifier, the aqueous phase must be a solution of NaCl (0.1 wt. %), CaCl2 (0.2 wt. %) and KCl (0.3 wt. %) because caseinate anion with minus charge and NRTO with positive charge immediately aggregated in DI water. The total oil phase in these emulsions were 3.2 wt. %, and the concentration of NRTOCl in total volume of each emulsion (15 mL) was 4.4 mM. In the emulsions that used Na-caseinate as an emulsifier, NaN3 (0.01 wt. %) was added to prevent the growth of bacteria. When the NRTOCl emulsion was made by 2 wt. % Na-caseinate, its average size and zeta potential in this emulsion (Cas emulsion) were 1020 nm and −14.4 mV respectively.
After making NRTOCl emulsions, a NRCl in canola oil-in-water emulsion was attempted as a control experiment using 3.2% canola oil. The aqueous phase was a solution of Na-caseinate (2 wt. %), NaCl (0.1 wt. %), CaCl2 (0.2 wt. %), KCl (0.3 wt. %) and NaN3 (0.01 wt. %). The concentration of NRCl in total volume (15 mL) of this emulsion was 4.4 mM. Moreover, 15 mL of NRCl solution in DI water was prepared with 4.4 mM concentration as the other control experiment. After preparing three NRTOCl emulsions and two control experiment samples, hydrolysis stability of each sample was studied at 35° C. for 26 days (FIG. 14). The rate of degradation was measured by determination of the released nicotinamide from each sample. […]

[3] = Hydrolysis stability of NRTOCl emulsions and NRCl in water at room temperature for 42 days; format: physicochemical; settings: room temperature, 42 days
Procedure: After each specific time of stability for NRTOCl and NRCl emulsions, 1.5 mL of each emulsion was centrifuged (14,000 rpm) for 20 minutes at room temperature. […] However, during this time of stability study, 52.0% NR was intact in water at room temperature. […] During this time, these emulsions were stable without visible phase separation. A little increase in the average size of the NRTO droplets occurred in these emulsions, so that in Cas emulsion, the average size increased from 1020 nm to 1281 nm, and in Cas-Lec emulsion, this parameter increased from 1012 nm to 1106 nm.

[4] = tested on: NAD+ level in mammalian cell; settings: cited from earlier work
[5] = Solubility study of NRTBCl in long and medium chain triglycerides and in water at different pH; format: physicochemical
Procedure: To study the solubility of NRTBCl in long chain triglycerides, we tried to dissolve this compound in olive oil and corn oil. For this purpose, 15 mg of NRTBCl was added to 15 ml of olive oil and vigorously shaked with vortex for 10 minutes at room temperature. […] This procedure was repeated by using corn oil instead of olive oil and the obtained results disclosed that NRTB was insoluble in corn oil. To study the solubility of NRTBCl in medium chain triglycerides, we tried to dissolve this compound in coconut oil. For this purpose, 15 mg of NRTBCl was added to 15 ml of coconut oil and vigorously shaked with vortex for 10 minutes at room temperature. […] To study the solubility of NRTB in water, three aqueous solutions of NRTBCl were prepared with 10000 ppm concentration at pH 5, 7, and 9.

[6] = NRTBCl stability measurement in MQ water at 35° C.; format: physicochemical; settings: 6 days, 1000 ppm, preliminary
Procedure: The stability study of the NRTBCl was performed by dissolving NRTB in MQ water and keeping at 35° C. for 6 days. The concentration of each sample was 1000 ppm. […] The reason for increasing the intensity of the peak at 33 min (flow rate: 0.75 mL/min), is that the byproduct of degradation is nicotinamide (NA), which has the retention time of 33 min (exactly as NRTBCl).

[7] = 15 mg in 15 ml, vortex 10 minutes, room temperature

SMILES	remaining amount after 28 days [1] [%]	solubility in the oil phase of the emulsion [2]	NR hydrolyzed after 42 days [3] [%]	NR intact in water after 42 days ([3]; water) [%]	boost of the level of NAD+ in mammalian cell [4]	solubility (general statement) [5]	solubility in coconut oil [5, 7]	solubility in corn oil [5, 7]	solubility in olive oil [5, 7]	solubility in water at different pH ([5]; 10000 ppm, pH 5, 7, and 9, zeta sizer)	hydrolysis stability in MQ water [6]
NC(=O)c1ccc[n+]([C@@H]2O[C@H](CO)[C@@H](O)[C@H]2O)c1.[Cl-] [NRCl, Nicotinamide riboside chloride, reference compound]	0.6	cannot be dissolved	48	52.0	up to two fold	–	–	–	–	–	–
CCCC(=O)OC[C@H]1O[C@@H]([n+]2cccc(C(N)=O)c2)[C@H](OC(=O)CCC)[C@@H]1OC(=O)CCC.[Cl-] [NRTBCl, nicotinamide riboside tributyrates chloride]	–	–	–	–	–	did not demonstrate good solubility	not dissolved	insoluble	not dissolved	completely be dissolved	easily hydrolyzed
